# Source: patent publication US20140148484A1, “PYRAZOLE COMPOUNDS FOR TREATING HAIRLOSS” (Boehringer Ingelheim International GmbH, priority 2012, published 2014)
# Molecular target: T1, human CRTH2 receptor (Homo sapiens, UniProt Q9Y5Y4)
# T1 construct: host or cells: CHO-K1 (CHO-K1-hCRTH2 cells); membranes prepared in house from the purchased cell line
# T1 sequence (Q9Y5Y4 1-395): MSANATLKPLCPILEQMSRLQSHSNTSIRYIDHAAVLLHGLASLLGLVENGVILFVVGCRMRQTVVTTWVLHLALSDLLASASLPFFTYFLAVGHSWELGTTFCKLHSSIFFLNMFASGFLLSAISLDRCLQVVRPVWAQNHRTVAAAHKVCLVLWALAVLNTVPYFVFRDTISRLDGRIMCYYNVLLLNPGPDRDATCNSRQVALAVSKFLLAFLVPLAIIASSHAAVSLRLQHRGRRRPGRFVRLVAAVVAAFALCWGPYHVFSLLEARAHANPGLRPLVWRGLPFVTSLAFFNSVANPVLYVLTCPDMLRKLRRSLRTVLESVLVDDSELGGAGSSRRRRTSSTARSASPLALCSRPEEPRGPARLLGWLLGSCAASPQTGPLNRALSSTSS
# Test: Human CRTH2 receptor membrane radioligand binding assay (SPA, [3H]-PGD2)
# Details: displacement of [3H]-PGD2 (1 nM) from CHO-K1-hCRTH2 cell membranes, 3 h room temperature
# Protocol: Preparation of Human CRTH2 Receptor Membranes and Radioligand Binding Assay
# The binding of CRTH2 antagonists is determined using membranes prepared from Chinese hamster ovary cells (CHO-K1 cells) transfected with the human CRTH2 receptor (CHO-K1-hCRTH2 cells, Perkin Elmer, Cat No ES-561-C). To produce cell membranes the CHO-K1-hCRTH2 cells are cultured in suspension in CHO SFMII medium supplemented with 400 μg/ml G418. The cells are harvested by centrifugation at 300 g for 10 min at room temperature. The cell pellet is resuspended in Phosphate Buffer Saline (PBS) including a protease inhibitor mix (Complete, Roche) and adjusted to a concentration of 10E7 cells/ml. The CHO-K1-hCRTH2 cells are disrupted by nitrogen […] to obtain the membrane preparation. Cell debris is removed by centrifugation (500 g at 4° C., 30 min) and the supernatant is transferred into fresh tubes followed by a second centrifugation at 40000 g for 1 h at 4° C. to sediment the membranes. The membranes are suspended in SPA incubation buffer (50 mM Tris HCl, 10 mM MgCl2, 150 mM NaCl, 1 mM EDTA, pH 7.4) without bovine serum albumin, homogenized by passing through a single use needle (Terumo, 23G×1″), and stored in aliquots at −80° C.
# The CRTH2 receptor binding assay is performed in a scintillation proximity assay (SPA) format with the radioligand [^3H]-PGD2 (Perkin Elmer, NET616000MC). CHO-K1-hCRTH2 cell membranes are again homogenized by passing through a single use needle (Terumo, 23G×1″) and diluted in SPA incubation buffer in suitable concentrations (0.5-10 μg protein/well). The SPA assay is set up in 96 well microtiter plates (Perkin Elmer, CatNo. 6005040) in SPA incubation buffer with a final volume of 200 μl per well and final concentration of 50 mM Tris-HCl, 10 mM MgCl2, 150 mM NaCl, 1 mM EDTA pH 7.4, 0.1% bovine serum albumin). The SPA assay mixture contains 60 μl of the membrane suspension, 80 μl of Wheat Germ Agglutinin coated PVT beads (GE Healthcare, RPNQ-0001, 0.3 mg/well), 40 μl of [3H]-PGD2 diluted in SPA buffer to a final concentration of 1 nM (50 000 dpm) and 20 μl of the test compound (dissolved in dimethylsulfoxid). The SPA assay mixture is incubated for 3 h at room temperature. Bound radioactivity is determined with a scintillation counter (Micro Beta Trilux, Wallac).
# The binding of [^3H]-PGD2 to CHO-K1-hCRTH2 cell membranes is determined in the absence (total binding, Bo) and presence (non-specific binding, NSB) of unlabelled PGD2 (1 μM, Cayman Chemical, Cat No 12010) or a reference CRTH2 antagonist (10 μM CAY10471, Cayman Chemical, Cat No 10006735).
# Determination of the affinity of a test compound is calculated by subtraction of the non-specific binding (NSB) from the total binding (Bo) or the binding in the presence of the test compound (B) at a given compound concentration. […] The Bo−NSB value is set to 0% inhibition.
row,SMILES,Ki [nM]
1,Cc1nn(Cc2ccc(NC(=O)c3ccc(C(F)(F)F)cc3)cc2)c(C)c1CC(=O)O [Example 1.1],2.9
2,Cc1cc(Cl)ccc1C(=O)Nc1ccc(Cn2nc(C)c(CC(=O)O)c2C)cc1 [Example 1.2],16.3
3,Cc1nn(Cc2ccc(NC(=O)c3ccccc3)cc2)c(C)c1CC(=O)O [Example 1.3],30.8
4,Cc1ccc(C(=O)Nc2ccc(Cn3nc(C)c(CC(=O)O)c3C)cc2)cc1 [Example 1.4],7.7
5,COc1ccc(C(=O)Nc2ccc(Cn3nc(C)c(CC(=O)O)c3C)cc2)cc1 [Example 1.5],12.9
6,Cc1nn(Cc2ccc(NC(=O)c3ccc(Cl)cc3)cc2)c(C)c1CC(=O)O [Example 1.6],3.5
7,Cc1nn(Cc2ccc(NC(=O)c3ccc4ccccc4c3)cc2)c(C)c1CC(=O)O [Example 1.7],2.5
8,Cc1nn(Cc2ccc(NC(=O)c3ccc(Cl)c(Cl)c3)cc2)c(C)c1CC(=O)O [Example 1.8],2.6
9,Cc1nn(Cc2ccc(NC(=O)c3ccc4ccccc4n3)cc2)c(C)c1CC(=O)O [Example 1.9],28.3
10,Cc1nn(Cc2ccc(NC(=O)CCc3ccccc3)cc2)c(C)c1CC(=O)O [Example 1.10],7.4
11,Cc1cc(C(F)(F)F)ccc1C(=O)Nc1ccc(Cn2nc(C)c(CC(=O)O)c2C)cc1 [Example 1.11],2.7
12,Cc1ccc(C(=O)Nc2ccc(Cn3nc(C)c(CC(=O)O)c3C)cc2)c(C)c1 [Example 1.12],12.9
13,Cc1nn(Cc2ccc(NC(=O)/C=C/c3ccccc3)cc2)c(C)c1CC(=O)O [Example 1.13],4
14,Cc1nn(Cc2ccc(NC(=O)/C=C/c3ccc(Cl)cc3)cc2)c(C)c1CC(=O)O [Example 1.14],1.1
15,Cc1nn(Cc2ccc(NC(=O)c3ccc(C(C)(C)C)cc3)cc2)c(C)c1CC(=O)O [Example 1.15],0.2
16,Cc1cc(Br)ccc1C(=O)Nc1ccc(Cn2nc(C)c(CC(=O)O)c2C)cc1 [Example 1.16],3.9
17,Cc1cc(C(=O)Nc2ccc(Cn3nc(C)c(CC(=O)O)c3C)cc2)c(C)cc1Br [Example 1.17],2.5
18,Cc1nn(Cc2ccc(NC(=O)c3ccc(Cl)cc3Cl)cc2)c(C)c1CC(=O)O [Example 1.18],17.9
19,Cc1nn(Cc2ccc(NC(=O)c3ccc(Cl)cc3F)cc2)c(C)c1CC(=O)O [Example 1.19],16.2
20,Cc1ccc(C(=O)Nc2ccc(Cn3nc(C)c(CC(=O)O)c3C)cc2)c(F)c1 [Example 1.20],29.3

row,SMILES,Ki [nM]
1,Cc1ccc(C(=O)Nc2ccc(Cn3nc(C)c(CC(=O)O)c3C)cc2)c(C(F)(F)F)c1 [Example 1.21],80.2
2,Cc1nn(Cc2ccc(NC(=O)c3ccc(C(F)(F)F)cc3F)cc2)c(C)c1CC(=O)O [Example 1.22],3320
3,Cc1nn(Cc2ccc(NC(=O)c3cc4ccccc4cc3Cl)cc2)c(C)c1CC(=O)O [Example 1.23],5.7
4,Cc1cc(C)c(C(=O)Nc2ccc(Cn3nc(C)c(CC(=O)O)c3C)cc2)c(C)c1 [Example 1.24],553
5,Cc1cc2ccccc2cc1C(=O)Nc1ccc(Cn2nc(C)c(CC(=O)O)c2C)cc1 [Example 1.25],3.1
6,Cc1nn(Cc2ccc(NC(=O)c3ccc4ccccc4c3C)cc2)c(C)c1CC(=O)O [Example 1.26],36
7,Cc1nn(Cc2ccc(NC(=O)c3ccc(Br)cc3Cl)cc2)c(C)c1CC(=O)O [Example 1.27],9.3
8,Cc1nn(Cc2ccc(NC(=O)c3ccc(Cl)cc3Br)cc2)c(C)c1CC(=O)O [Example 1.28],12.4
9,Cc1nn(Cc2ccc(NC(=O)c3cccc4c3CCCC4)cc2)c(C)c1CC(=O)O [Example 1.29],2.5
10,Cc1nn(Cc2ccc(NC(=O)c3ccc4ccccc4c3Br)cc2)c(C)c1CC(=O)O [Example 1.30],14.6
11,Cc1ccc(Br)c(C(=O)Nc2ccc(Cn3nc(C)c(CC(=O)O)c3C)cc2)c1 [Example 1.31],18.9
12,Cc1nn(Cc2ccc(NC(=O)C(C)C)cc2)c(C)c1CC(=O)O [Example 1.32],32.5
13,Cc1nn(Cc2ccc(NC(=O)C3CCCCC3)cc2)c(C)c1CC(=O)O [Example 1.33],29.8
14,Cc1nn(Cc2ccc(NC(=O)C3[C@H]4C[C@@H]5C[C@@H](C[C@H]3C5)C4)cc2)c(C)c1CC(=O)O (stereo partly shown) [Example 1.34],4
15,Cc1nn(Cc2ccc(NC(=O)C3CCC3)cc2)c(C)c1CC(=O)O [Example 1.35],44.6
16,CCc1nn(Cc2ccc(NC(=O)c3ccc(C(F)(F)F)cc3)cc2)c(CC)c1CC(=O)O [Example 2.1],0.2
17,CCc1nn(Cc2ccc(NC(=O)c3ccc(Cl)cc3C)cc2)c(CC)c1CC(=O)O [Example 2.2],1.1
18,CCc1nn(Cc2ccc(NC(=O)c3ccccc3)cc2)c(CC)c1CC(=O)O [Example 2.3],3.4
19,CCc1nn(Cc2ccc(NC(=O)c3ccc(C)cc3)cc2)c(CC)c1CC(=O)O [Example 2.4],1.3
20,CCc1nn(Cc2ccc(NC(=O)c3ccc(Cl)cc3)cc2)c(CC)c1CC(=O)O [Example 2.5],0.75

row,SMILES,Ki [nM]
1,CCc1nn(Cc2ccc(NC(=O)c3ccc(Cl)c(Cl)c3)cc2)c(CC)c1CC(=O)O [Example 2.6],0.25
2,Cc1c(CC(=O)O)c(C2CCCCC2)nn1Cc1ccc(NC(=O)c2ccc(C(F)(F)F)cc2)cc1 [Example 2.7],12.9
3,Cc1nn(Cc2ccc(NC(=O)c3ccc4ccccc4c3)cc2)c(-c2ccccc2)c1CC(=O)O [Example 2.8],1.3
4,Cc1nn(Cc2ccc(NC(=O)c3ccc(C(F)(F)F)cc3)cc2)c(-c2ccccc2)c1CC(=O)O [Example 2.9],1.8
5,Cc1nn(Cc2ccc(NC(=O)c3ccc(Cl)c(Cl)c3)cc2)c(-c2ccccc2)c1CC(=O)O [Example 2.10],0.8
6,Cc1c(CC(=O)O)c(-c2ccccc2)nn1Cc1ccc(NC(=O)c2ccc(C(F)(F)F)cc2)cc1 [Example 2.11],1.2
7,Cc1c(CC(=O)O)c(-c2ccccc2)nn1Cc1ccc(NC(=O)c2ccc3ccccc3c2)cc1 [Example 2.12],2.3
8,Cc1c(CC(=O)O)c(-c2ccccc2)nn1Cc1ccc(NC(=O)c2ccc(Cl)c(Cl)c2)cc1 [Example 2.13],2.9
9,CCc1nn(Cc2ccc(NC(=O)c3ccc4ccccc4c3)cc2)c(CC)c1CC(=O)O [Example 2.14],0.2
10,CCc1nn(Cc2ccc(NC(=O)c3ccc(C)cc3C)cc2)c(CC)c1CC(=O)O [Example 2.15],1.4
11,CCc1nn(Cc2ccc(NC(=O)[C@H]3CC[C@@H](C(F)(F)F)CC3)cc2)c(CC)c1CC(=O)O [Example 2.16],23.9
12,CCc1nn(Cc2ccc(NC(=O)c3ccc(Br)cc3C)cc2)c(CC)c1CC(=O)O [Example 2.17],0.7
13,CCc1nn(Cc2ccc(NC(=O)C3CCCCC3)cc2)c(CC)c1CC(=O)O [Example 2.18],2.8
14,CCc1nn(Cc2ccc(NC(=O)c3cc(C)ccc3Br)cc2)c(CC)c1CC(=O)O [Example 2.19],5.8
15,CCc1nn(Cc2ccc(NC(=O)c3cccc(Cl)c3Cl)cc2)c(CC)c1CC(=O)O [Example 2.20],13.9
16,CCc1nn(Cc2ccc(NC(=O)c3cccc4c3CCCC4)cc2)c(CC)c1CC(=O)O [Example 2.21],0.5
17,CCc1nn(Cc2ccc(NC(=O)c3ccc(Br)cc3Cl)cc2)c(CC)c1CC(=O)O [Example 2.22],1.9
18,CCc1ccccc1C(=O)Nc1ccc(Cn2nc(CC)c(CC(=O)O)c2CC)cc1 [Example 2.23],6.1
